Measured values from patent US9617225B2 (VIROSTATICS SRL, priority 2012, dated 2017).
Where two headings read alike, the source gives them in different places.

Tests used:
[1] = biological target: human CDK9/CyclinT kinase complex (Homo sapiens (Human), UniProt P50750); assay: In Vitro CDK9/CyclinT Assay (IMAP fluorescent polarization); format: biochemical
Method in brief: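 Phosphorylation of 400 nM TAMRA-Rbtide (15-mer retinoblastoma-derived peptide) by 5 nM CDK9/CyclinT with 12 μM ATP (=Kmapp) in 20 mM MOPS pH 7, 1 mM DTT, 10 mM MgCl2, 0.01% Tween 20. Reaction run 1 hour at room temperature, stopped with IMAP beads; read by fluorescence polarization.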

[2] = tested on: laboratory strain of HIV-1; assay: Antiviral Activity Against HIV (AV), p24 in infected activated primary T cells; format: cell-based; conditions: for antiviral and antiproliferative activity and cytotoxicity profile: summary in words
Protocol: Antiviral Activity Against HIV (AV)
Activated primary T cells are infected with a laboratory strain of HIV-1, then cultured and exposed to different concentrations of the test compounds. HIV replication is analysed by measuring the viral protein p24 and expressed as percentage of untreated control. Inhibition of viral replication (AV) is then calculated (AV=100 minus the % p24 compared to control, AV of control=0%). Inhibitory concentration 50% for antiviral activity (AV50) is calculated.

[3] = tested on: Primary T cells; assay: Antiproliferative Activity (AP), mitotic index by flow cytometry; format: cell-based; conditions: T-cell, read-out: AP50 (μM)
Protocol: Antiproliferative Activity (AP)
Primary T cells are cultured and exposed to different concentrations of the test compounds. Cell proliferation is analysed by measuring mitotic index (ie the number of cell divisions a population of cells undergoes) through flow cytometry based techniques. Mitotic index is expressed as percentage of untreated control. Inhibition of cell proliferation (AP) is then calculated (AP=100 minus % mitotic index compared to control, AP of control=0%). Inhibitory concentration 50% for antiproliferative capacity (AP50) is calculated.

[4] = tested on: Primary T cells; assay: Cytotoxicity, viability by flow cytometry; format: cell-based
Protocol: Primary T cells are cultured and treated with different concentrations of the test compound. Viability is analysed by measuring through flow cytometry based techniques the percentage of viable cells, compared to untreated control=100%).

Sequence of human CDK9/CyclinT kinase complex (P50750 whole entry): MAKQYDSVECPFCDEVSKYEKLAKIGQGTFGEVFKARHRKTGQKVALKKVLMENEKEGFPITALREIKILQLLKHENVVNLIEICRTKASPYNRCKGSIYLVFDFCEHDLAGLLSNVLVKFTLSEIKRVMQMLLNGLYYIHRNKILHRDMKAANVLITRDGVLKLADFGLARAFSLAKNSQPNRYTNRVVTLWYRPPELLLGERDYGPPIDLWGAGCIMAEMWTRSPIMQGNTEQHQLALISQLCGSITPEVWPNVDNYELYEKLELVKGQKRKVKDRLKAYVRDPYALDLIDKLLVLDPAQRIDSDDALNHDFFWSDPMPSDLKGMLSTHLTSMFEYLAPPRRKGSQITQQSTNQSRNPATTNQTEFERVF
Sequence of human CDK9/CyclinT kinase complex (O60563 whole entry partner): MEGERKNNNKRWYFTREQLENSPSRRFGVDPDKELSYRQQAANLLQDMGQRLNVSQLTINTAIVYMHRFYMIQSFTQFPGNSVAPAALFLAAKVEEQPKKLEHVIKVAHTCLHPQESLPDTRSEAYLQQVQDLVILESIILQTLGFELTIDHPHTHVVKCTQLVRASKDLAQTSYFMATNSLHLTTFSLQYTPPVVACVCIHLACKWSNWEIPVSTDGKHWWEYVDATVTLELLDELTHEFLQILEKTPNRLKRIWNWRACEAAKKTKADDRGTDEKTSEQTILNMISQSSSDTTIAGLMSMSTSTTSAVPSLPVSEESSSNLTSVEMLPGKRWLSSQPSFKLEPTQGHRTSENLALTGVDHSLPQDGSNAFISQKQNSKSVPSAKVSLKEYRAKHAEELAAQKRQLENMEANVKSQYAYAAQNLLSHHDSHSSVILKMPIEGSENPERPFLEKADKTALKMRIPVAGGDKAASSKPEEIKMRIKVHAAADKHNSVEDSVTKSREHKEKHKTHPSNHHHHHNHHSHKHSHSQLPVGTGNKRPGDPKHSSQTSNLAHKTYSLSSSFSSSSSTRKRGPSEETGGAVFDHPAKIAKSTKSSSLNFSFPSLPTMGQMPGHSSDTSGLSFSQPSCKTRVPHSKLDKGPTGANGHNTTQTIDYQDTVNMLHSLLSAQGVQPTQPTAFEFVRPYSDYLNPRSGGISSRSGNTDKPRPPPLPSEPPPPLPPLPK

Compound | IC50 ([1]; Table 1) [nM] | IC50 ([2]; Human immunodeficiency virus 1, T-cell, read-out: AV50 (μM)) [µM] | IC50 [3] [µM] | TD50 [4] [µM] | antiviral and antiproliferative activity and cytotoxicity profile [2] | IC50 [1] [nM] | IC50 ([1]; Table 5) [nM] | IC50 ([2]; read-out: AV50, Table 5) [µM]
CNCc1cc(Nc2cc(-c3ccccc3OC)ncn2)ccc1OC [Example 37, N-(4-Methoxy-3-((methylamino)methyl)phenyl)-6-(2-methoxyphenyl)pyrimidin-4-amine] | < 100 | > 1.5 | 2 | 2 | – | – | – | –
COc1ccc(Nc2cc(-c3cc(F)ccc3OC)ncn2)cc1N [Example 75, N^1-[6-(5-Fluoro-2-methoxy-phenyl)-pyrimidin-4-yl]-4-methoxy-benzene-1,3-diamine] | < 1000 | – | – | 10 | good antiviral and antiproliferative activity and a good cytotoxicity profile | – | – | –
COc1ccc(Nc2cc(-c3ccccc3OC(C)C)ncn2)cc1N [Example 79, N^1-[6-(2-Isopropoxy-phenyl)-pyrimidin-4-yl]-4-methoxy-benzene-1,3-diamine] | < 1000 | – | – | 15 | good antiviral and antiproliferative activity and a good cytotoxicity profile | – | – | –
COc1ccc(Nc2cc(-c3cc(F)c(F)cc3OC)ncn2)cc1N [Example 83, N^1-[6-(4,5-Difluoro-2-methoxy-phenyl)-pyrimidin-4-yl]-4-methoxy-benzene-1,3-diamine] | < 1000 | – | – | 12 | good antiviral and antiproliferative activity and a good cytotoxicity profile | – | – | –
CCOc1ccc(Nc2cc(-c3ccccc3OC)ncn2)cc1C(N)=O [Example 111, 2-Ethoxy-5-[6-(2-methoxy-phenyl)-pyrimidin-4-ylamino]-benzamide] | < 1000 | – | – | 12 | good antiviral and antiproliferative activity and a good cytotoxicity profile | – | – | –
CCOc1ccc(Nc2cc(-c3ccc(F)cc3OC)ncn2)cc1C(N)=O [Example 112, 2-Ethoxy-5-[6-(4-fluoro-2-methoxy-phenyl)-pyrimidin-4-ylamino]-benzamide] | – | – | – | 10 | good antiviral and antiproliferative activity and a good cytotoxicity profile | < 1000 | – | –
COc1ccc(Nc2cc(-c3ccc(F)cc3OC)ncn2)cc1O [Example 123, 5-[6-(4-Fluoro-2-methoxy-phenyl)-pyrimidin-4-ylamino]-2-methoxy-phenol] | < 1000 | – | – | 7 | good antiviral and antiproliferative activity and a good cytotoxicity profile | – | – | –
COc1ccc(Nc2cc(-c3cc(F)ccc3OC)ncn2)cc1C(N)=O [Example 127, 5-[6-(5-Fluoro-2-methoxy-phenyl)-pyrimidin-4-ylamino]-2-methoxy-benzamide] | – | – | – | 7 | good antiviral and antiproliferative activity and a good cytotoxicity profile | < 1000 | – | –
COc1ccc(Nc2cc(-c3ccc(F)cc3OC)ncn2)cc1C(N)=O [Example 128, 5-[6-(4-Fluoro-2-methoxy-phenyl)-pyrimidin-4-ylamino]-2-methoxy-benzamide] | < 1000 | – | – | 5 | good antiviral and antiproliferative activity and a good cytotoxicity profile | – | – | –
CCOc1ccccc1-c1cc(Nc2ccc(OC)c(C(N)=O)c2)ncn1 [Example 129, 5-[6-(2-Ethoxy-phenyl)-pyrimidin-4-ylamino]-2-methoxy-benzamide] | – | – | – | 5 | good antiviral and antiproliferative activity and a good cytotoxicity profile | < 100 | – | –
CCOc1cc(F)ccc1-c1cc(Nc2ccc(OC)c(C(N)=O)c2)ncn1 [Example 130, 5-[6-(2-Ethoxy-4-fluoro-phenyl)-pyrimidin-4-ylamino]-2-methoxy-benzamide] | – | – | – | 15 | good antiviral and antiproliferative activity and a good cytotoxicity profile | < 100 | – | –
CCOc1ccc(F)cc1-c1cc(Nc2ccc(OC)c(C(N)=O)c2)ncn1 [Example 131, 5-[6-(2-Ethoxy-5-fluoro-phenyl)-pyrimidin-4-ylamino]-2-methoxy-benzamide] | < 1000 | – | – | 2 | good antiviral and antiproliferative activity and a good cytotoxicity profile | – | – | –
CNC(=O)c1ccc(Nc2cc(-c3ccccc3OC)ncn2)cc1OC [Example 134, 2-Methoxy-4-[6-(2-methoxy-phenyl)-pyrimidin-4-ylamino]-N-methyl-benzamide] | < 1000 | – | – | >10 | – | – | < 1000 | > 10
COc1cc(Nc2cc(-c3ccccc3OC)ncn2)ccc1C(N)=O [Example 136, 2-Methoxy-4-[6-(2-methoxy-phenyl)-pyrimidin-4-ylamino]-benzamide] | < 1000 | – | – | >2 | – | – | < 1000 | > 2
CCOc1ccccc1-c1cc(Nc2cc(F)c(OC)c(C(N)=O)c2)ncn1 [Example 141, 5-[6-(2-Ethoxy-phenyl)-pyrimidin-4-ylamino]-3-fluoro-2-methoxy-benzamide] | < 1000 | – | – | >20 | good antiviral and antiproliferative activity and a good cytotoxicity profile | – | – | –
CCOc1ccc(F)cc1-c1cc(Nc2cc(F)c(OC)c(C(N)=O)c2)ncn1 [Example 142, 5-[6-(2-Ethoxy-5-fluoro-phenyl)-pyrimidin-4-ylamino]-3-fluoro-2-methoxy-benzamide] | – | – | – | >20 | good antiviral and antiproliferative activity and a good cytotoxicity profile | < 1000 | – | –
COc1cc(F)c(Nc2cc(-c3ccccc3OC)ncn2)cc1C(N)=O [Example 143, 4-Fluoro-2-methoxy-5-[6-(2-methoxy-phenyl)-pyrimidin-4-ylamino]-benzamide] | – | – | – | 15 | good antiviral and antiproliferative activity and a good cytotoxicity profile | < 1000 | – | –
COc1cc(F)c(Nc2cc(-c3cc(F)ccc3OC)ncn2)cc1C(N)=O [Example 144, 4-Fluoro-5-[6-(5-fluoro-2-methoxy-phenyl)-pyrimidin-4-ylamino]-2-methoxy-benzamide] | – | – | – | 12 | good antiviral and antiproliferative activity and a good cytotoxicity profile | < 1000 | – | –
CCOc1ccccc1-c1cc(Nc2cc(C(N)=O)c(OC)cc2F)ncn1 [Example 145, 5-[6-(2-Ethoxy-phenyl)-pyrimidin-4-ylamino]-4-fluoro-2-methoxy-benzamide] | – | – | – | 15 | good antiviral and antiproliferative activity and a good cytotoxicity profile | < 1000 | – | –
COc1cc(F)c(Nc2cc(-c3ccc(F)cc3OC)ncn2)cc1C(N)=O [Example 146, 4-Fluoro-5-[6-(4-fluoro-2-methoxy-phenyl)-pyrimidin-4-ylamino]-2-methoxy-benzamide] | < 1000 | – | – | 10 | good antiviral and antiproliferative activity and a good cytotoxicity profile | – | – | –
CCOc1cc(F)ccc1-c1cc(Nc2cc(C(N)=O)c(OC)cc2F)ncn1 [Example 147, 5-[6-(2-Ethoxy-4-fluoro-phenyl)-pyrimidin-4-ylamino]-4-fluoro-2-methoxy-benzamide] | – | – | – | 15 | good antiviral and antiproliferative activity and a good cytotoxicity profile | < 1000 | – | –
